Laboratory results published in patent publication US20020120098A1, “Enhanced stimulation of erythropoiesis” (priority 1996, published 2002).

Tests used:
Assay type in all cases: cell-based, human
[1] = tested on: BFU-E; experiment: Colony formation assay (CFA), cord blood LDMNC: BFU-E colonies; conditions: for BFU-E progenitor number, fold increase: 2 U/ml Epo, ambient O2, vs vehicle control; for fold increase in BFU-E at 5% O2: 5% O2, 2 U/ml Epo, relative to untreated controls at ambient O2; for fold increase in BFU-E at 5% O2 / fold increase in BFU-E number over untreated controls (no addition) at 0.2 U/ml Epo: 1.0 mg/ml HAo or HEMOLINK; for fold increase in BFU-E number over untreated controls (no addition) at 0.2 U/ml Epo: 250 μM FeCl3
Protocol: (§1) This technique, referred to as the colony formation assay (CFA), is the most widely used biological assay to identify and enumerate erythroid progenitors present in hematopoietic tissue such as blood and bone marrow. Cell populations containing erythroid progenitors are plated in semi-solid suspensions of methyl cellulose, agar, low melting agarose or related substances in nutrient culture medium containing 1-3 U/ml Epo and 10 ng/ml IL-3 to specifically stimulate erythroid progenitors. Plates are incubated at 37° C. for 14 days during which time the erythroid progenitors form characteristic hemoglobinized (red) colonies. Two distinct but related erythroid progenitors can be distinguished based on colony size and morphology: BFU-E, the most primitive recognizable erythroid progenitor forms large multilobular colonies whereas the more mature CFU-E forms smaller spherical colonies.
(§2) Adult hemoglobin was purified according to U.S Pat. Nos. 5,439,591 and 5,545,328 to obtain HAo and HEMOLINK™ was prepared from HAo according to U.S. Pat. No. 5,532,352. Human umbilical cord blood intended for discard was collected from the umbilical vein of placentas immediately postpartum into 10 ml vacutainer tubes containing 143 USP units/ml sodium heparin. Low density mononuclear cells were separated from red blood cells by centrifugation over a 1.077 g/ml density gradient Cells removed from the plasma/density gradient interface were incubated overnight in a tissue culture flask with 10 ml cell culture medium containing 10% fetal bovine serum, and non-adherent LDMNC were further purified with an additional density gradient step. The LDMNC were then plated into colony formation assays (CFA) on the second day of isolation. In the CFA, LDMNC were plated at a density of 1×10^5 cells/ml in Iscoves modified Dulbeccos cell culture medium containing 0.8% methyl-cellulose, 30% fetal bovine serum, 1% bovine serum albumin, 0.1 mM 2-mercaptoethanol and 2 mM L-glutamine. Unless indicated otherwise, under standard CFA conditions 2 U/ml Epo and 10 ng/ml IL-3 are added to the formulation to stimulate hematopoietic progenitor growth, specifically BFU-E, CFU-E and CFU-GM.
(§3) Each condition was tested in duplicate in from 2-18 independent experiments. Cultures were maintained in a humidified incubator at 37° C., 5% CO2 and ambient oxygen tensions. The number of hematopoietic progenitors was scored between days 13-15 by counting the number and types of colonies present.
(§4) Erythroid progenitor colony formation assays were conducted as described in Example 1 except that cultures were incubated at either ambient oxygen tensions (˜20% O2) or 5% O2. The reduced oxygen tension of 5% O2 approximates the physiological intravascular oxygen tension in mammals. The mean fold increase in cord blood BFU-E, CFU-E and CFU-GM progenitor number at 5% O2 produced by 1.0 mg/ml HAo (15.6 μM; n=11) or HEMOLINK™ (15.6 μM; n=6), 100 μM hemin (n=10), 250 μM FeCl3 (n=6) or no addition (n=17-18), is shown FIG. 2. Results are expressed relative to control cells treated only with respective vehicles and cultured at ambient oxygen tensions (˜20% O2; fold expansion=1.0; *p<0.05, **p<0.01).
(§5) Erythroid progenitor colony formation assays were conducted as described in Example 1 except that cultures were initiated in the presence of Epo concentrations ranging from 0-2 U/ml. The mean fold increase in cord blood BFU-E, CFU-E and CFU-GM progenitor number produced by 1.0 mg/ml HAo (15.6 μM; n=9) or HEMOLINK™ (15.6 μM; n=6), 100 μM hemin (n=8), 250 μM FeCl3 (n=6), or no addition (n=9-10) in the presence of reduced Epo concentrations (0.2 U/ml) is shown in FIG. 3. Cultures were maintained at ambient oxygen tensions (˜20% O2) for 14 days. Results are expressed relative to control cells at 2 U/ml Epo treated only with the respective vehicles (solid line at fold expansion=1.0; *p<0.05, **p<0 01). Erythroid progenitor colonies were undetectable in the absence of Epo. […]

[2] = tested on: CFU-E; experiment: Colony formation assay (CFA), cord blood LDMNC: CFU-E colonies; conditions: for CFU-E progenitor number, fold increase: 2 U/ml Epo, ambient O2, vs vehicle control; for fold increase in CFU-E at 5% O2: 5% O2, 2 U/ml Epo, 1.0 mg/ml HAo or HEMOLINK, 100 μM hemin, relative to untreated controls at ambient O2
Protocol: as §1, §2, §3, §4, §5

[3] = tested on: erythroid progenitors; experiment: Colony formation assay, adult peripheral blood LDMNC: erythroid progenitors overall; conditions: for growth of erythroid progenitors in the absence of Epo, adult blood: 0 U/ml Epo; for erythroid progenitor number, adult blood, 5% O2 and 0.2 U/ml Epo (in words): 5% O2, 0.2 U/ml Epo, over untreated controls under the same conditions
Protocol: Blood was collected with informed consent from the antecubital vein of healthy adult human volunteers into vacutainers containing 143 USP U/ml sodium heparin. Low density mononuclear cells (LDMNC) were isolated by centrifugation over a density gradient as described in Example 1. Plastic adherent cells were removed by an overnight incubation in a tissue culture flask and the non-adherent cells were placed directly in a CFA. Conditions for the CFA are similar to those described in Examples 1-4.
Mean fold increase in adult blood BFU-E, CFU-E and CFU-GM progenitor number in the presence of reduced Epo (0.2 U/ml) (n=3) at 20% O2 is shown in FIG. 11 with and without (no addition) the additives used in FIG. 9. Results are expressed relative to control cells at 2 U/ml Epo treated only with the respective vehicles (solid line at fold expansion=1.0). […] As with cord blood, CFU-GM numbers were unaffected by reductions in Epo. The addition of HAo or HEMOLINK™ to CFAs containing 0.2 U/ml Epo stimulated ˜4.5- and ˜3.5-fold increases in BFU-E and CFU-E, respectively, compared to untreated controls (no addition), restoring the progenitor number to that obtained at 2 U/ml Epo. Hemin stimulated the greatest increase in BFU-E and CFU-E (˜9- and ˜6-fold, respectively) at 0.2 U/ml Epo versus the untreated controls (no addition). FeCl3 stimulated only a ˜2-fold increase in erythroid progenitor number at 0.2 U/ml Epo.
Mean fold increase in adult blood BFU-E, CFU-E and CFU-GM progenitor number at 5% O2 in the presence of reduced Epo (0.2 U/ml) (n=3) is shown in FIG. 12 with and without the additives used in FIG. 9. Results are expressed relative to control cells at 2 U/ml Epo treated only with the respective vehicles and cultured at ambient oxygen tensions (˜20% O2) for 14 days (solid line at fold expansion=1.0). The number of erythroid progenitors stimulated at 5% O2 and 0.2 U/ml Epo was similar to that obtained with 2.0 U/ml Epo maintained at ambient oxygen tensions (no addition).

[4] = tested on: BFU-E; experiment: Colony formation assay (CFA), cord blood LDMNC: BFU-E colonies; conditions: 5% O2, 0.2 U/ml Epo; 100 μM hemin, 1.0 mg/ml HAo or HEMOLINK; relative to controls at 2 U/ml Epo, ambient O2
[5] = 1 mg/ml HEMOLINK plus 0-100 μM ganciclovir

[Cl][Fe]([Cl])[Cl] [FeCl3] was tested, and the “BFU-E progenitor number, fold increase” value ([1]; dose 1.0 μM) was 1.2 fold, the “BFU-E progenitor number, fold increase” value ([1]; dose 10 μM) was 1.4 fold and the “BFU-E progenitor number, fold increase” value ([1]; dose 250 μM) was “*1.7 fold”. The “CFU-E progenitor number, fold increase” value ([2]; dose 1.0 μM) was 1.0 fold, the “CFU-E progenitor number, fold increase” value ([2]; dose 10 μM) was 1.2 fold and the “CFU-E progenitor number, fold increase” value ([2]; dose 250 μM) was 1.1 fold. The “growth of erythroid progenitors in the absence of Epo, adult blood” value (“growth of erythroid progenitors” below) [3] was “could not support the growth of erythroid progenitors in the absence of Epo” and the “fold increase in erythroid progenitor number, adult blood, 0.2 U/ml Epo” value ([3]; 0.2 U/ml Epo, ~20% O2, 250 μM FeCl3) was roughly 2 fold.

With C=CC1=C(C)C2=Cc3c(C=C)c(C)c4[n]3[Fe-2]35([Cl])[n]6c(c(C)c(CCC(=O)O)c6=CC6=[N+]3C(=C4)C(C)=C6CCC(=O)O)=CC1=[N+]25 [hemin] the “BFU-E number at 0.2 U/ml Epo compared with untreated controls at 2 U/ml Epo” value ([1]; 0.2 U/ml Epo, ambient O2, 100 μM hemin) was “generated the same number of BFU-E as the untreated controls at 2 U/ml Epo”, the “fold increase in BFU-E at 5% O2” value ([1]; 100 μM hemin) was roughly 8 fold and the “BFU-E progenitor number, fold increase” value ([1]; dose 1.0 μM) was 0.9 fold. For the same compound, the “BFU-E progenitor number, fold increase” value ([1]; dose 10 μM) was 1.5 fold, the “BFU-E progenitor number, fold increase” value ([1]; dose 250 μM) was 2.2 fold and the “fold increase in CFU-E at 5% O2” value [2] was roughly 3 fold. For the same compound, the “CFU-E progenitor number, fold increase” value ([2]; dose 1.0 μM) was 1.2 fold, the “CFU-E progenitor number, fold increase” value ([2]; dose 10 μM) was “*1.6 fold” and the “CFU-E progenitor number, fold increase” value ([2]; dose 64 μM) was 1.8 fold. The “CFU-E progenitor number, fold increase” value ([2]; dose 250 μM) was 2.2 fold, the “growth of erythroid progenitors” value [3] was “could not support the growth of erythroid progenitors in the absence of Epo” and the “erythroid progenitor number, adult blood, 5% O2 and 0.2 U/ml Epo (in words)” value [3] was “stimulated further increases in erythroid progenitor number”. The “fold increase in BFU-E at 0.2 U/ml Epo and 5% O2” value [4] was 4 fold.

With “HAo: adult human hemoglobin obtained from red blood cells and purified by displacement chromatography; uncross linked product” the “fold increase in BFU-E number over untreated controls (no addition) at 0.2 U/ml Epo” value ([1]; 0.2 U/ml Epo, ambient O2) was 3 fold, the “fold increase in BFU-E at 5% O2” value ([1]; 100 μM hemin) was roughly 8 fold and the “BFU-E progenitor number, fold increase” value ([1]; dose 10 μg/ml) was 1.1 fold. The “BFU-E progenitor number, fold increase” value ([1]; dose 100 μg/ml) was 1.3 fold, the “BFU-E progenitor number, fold increase” value ([1]; dose 500 μg/ml) was “**1.7 fold” and the “fold increase in CFU-E at 5% O2” value [2] was roughly 3 fold. The “CFU-E progenitor number, fold increase” value ([2]; dose 10 μg/ml) was 1.2 fold, the “CFU-E progenitor number, fold increase” value ([2]; dose 100 μg/ml) was 1.5 fold and the “CFU-E progenitor number, fold increase” value ([2]; dose 500 μg/ml) was “*1.4 fold”. For the same compound, the “growth of erythroid progenitors” value [3] was “could not support the growth of erythroid progenitors in the absence of Epo”, the “erythroid progenitor number, adult blood, 5% O2 and 0.2 U/ml Epo (in words)” value [3] was “stimulated further increases in erythroid progenitor number” and the “fold increase in BFU-E at 0.2 U/ml Epo and 5% O2” value [4] was 3.3 fold.

In the case of “HEMOLINK™: chemically crosslinked hemoglobin prepared by treating human hemoglobin with a polyaldehyde (O-raffinose)”, the “reduction of toxicity of ganciclovir to BFU-E” value [1, 5] is reported as “about 10 fold”, the “fold increase in BFU-E number over untreated controls (no addition) at 0.2 U/ml Epo” value ([1]; 0.2 U/ml Epo, ambient O2) is reported as 3 fold and the “fold increase in BFU-E at 5% O2” value ([1]; 100 μM hemin) is reported as roughly 8 fold. For the same compound, the “protection of CFU-E from ganciclovir toxicity” value [2, 5] was “protects CFU-E”, the “fold increase in CFU-E at 5% O2” value [2] was roughly 3 fold and the “growth of erythroid progenitors” value [3] was “could not support the growth of erythroid progenitors in the absence of Epo”. The “erythroid progenitor number, adult blood, 5% O2 and 0.2 U/ml Epo (in words)” value [3] was “stimulated further increases in erythroid progenitor number” and the “fold increase in BFU-E at 0.2 U/ml Epo and 5% O2” value [4] was 2.6 fold.
